The target in assay [1] is T1, AdeB multidrug efflux pump (Acinetobacter baumannii, UniProt Q2FD70). In words: fluorescence polarization Kd with purified AdeB; cryo-EM structures in lipidic nanodiscs (7KGG, 7KGH, 7KGI). It counts as binding. On the set-up: full-length; homotrimer.
In assay [2] the target is T1, AdeB multidrug efflux pump. The assay can be described thus: fluorescence polarization titration with purified AdeB. It counts as binding. On the set-up: full-length. Background: Polarisation of emitted light reports the rotation of a fluorescent probe.
Assay [3] addresses Acinetobacter baumannii AdeB multidrug efflux pump (Acinetobacter baumannii (AB0057)). The assay can be described thus: cryo-EM structure; AdeB in lipidic nanodiscs (MSP 1E3D1, E. coli total extract lipid; 20 mM Tris-HCl pH 7.5, 100 mM NaCl); 2 uM AdeB-nanodisc incubated with 20 uM ethidium bromide for 2 h; six conformational classes (three apo, three Et-bound) sorted from one sample.

For a further assay, the target named is CusB (Escherichia coli) (UniProt P77239). In words: ITC. As to conditions: cited from earlier work.

Kd and stoichiometry N data for four compounds are collected here from publication PMC8545137, “Cryoelectron Microscopy Structures of AdeB Illuminate Mechanisms of Simultaneous Binding and Exporting of Substrates” (mBio, 2021).

CusA, sequence (P38054 whole entry): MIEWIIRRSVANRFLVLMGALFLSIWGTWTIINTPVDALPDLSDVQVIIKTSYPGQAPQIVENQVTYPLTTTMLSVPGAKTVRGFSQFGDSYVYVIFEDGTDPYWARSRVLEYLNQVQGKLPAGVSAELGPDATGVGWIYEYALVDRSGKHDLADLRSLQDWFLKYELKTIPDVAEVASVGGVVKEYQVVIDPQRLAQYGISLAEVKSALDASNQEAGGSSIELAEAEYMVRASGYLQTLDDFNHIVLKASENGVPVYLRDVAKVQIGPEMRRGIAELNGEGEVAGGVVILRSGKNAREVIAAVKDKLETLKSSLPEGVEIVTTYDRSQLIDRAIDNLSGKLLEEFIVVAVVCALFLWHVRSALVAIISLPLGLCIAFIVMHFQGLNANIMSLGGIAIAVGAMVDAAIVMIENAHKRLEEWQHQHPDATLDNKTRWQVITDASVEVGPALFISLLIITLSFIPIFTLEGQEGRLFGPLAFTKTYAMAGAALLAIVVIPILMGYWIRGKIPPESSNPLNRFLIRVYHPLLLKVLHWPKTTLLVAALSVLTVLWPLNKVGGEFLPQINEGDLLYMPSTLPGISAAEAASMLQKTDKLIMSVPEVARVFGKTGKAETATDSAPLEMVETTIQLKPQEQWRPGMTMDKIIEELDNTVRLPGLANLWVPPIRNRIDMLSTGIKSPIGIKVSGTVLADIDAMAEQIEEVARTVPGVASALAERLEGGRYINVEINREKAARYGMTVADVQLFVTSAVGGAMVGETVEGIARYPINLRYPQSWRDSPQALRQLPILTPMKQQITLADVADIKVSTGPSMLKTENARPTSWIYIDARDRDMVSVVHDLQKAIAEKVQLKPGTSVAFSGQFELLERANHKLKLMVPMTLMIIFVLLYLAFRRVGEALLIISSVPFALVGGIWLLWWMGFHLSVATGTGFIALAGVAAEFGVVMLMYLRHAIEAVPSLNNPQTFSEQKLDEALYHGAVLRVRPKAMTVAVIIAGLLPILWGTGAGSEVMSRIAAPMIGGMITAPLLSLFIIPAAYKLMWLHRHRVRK

With `CC[n+]1c(-c2ccccc2)c2cc(N)ccc2c2ccc(N)cc21` [Et, ethidium bromide], the Kd – broadly, the concentration at which binding is half-saturated – in assay [1] is 2.5 ± 0.1 µM. As for `CC/N=c1\cc2oc3cc(NCC)c(C)cc3c(-c3ccccc3C(=O)OCC)c-2cc1C` [R6G, rhodamine 6G], in assay [2], the Kd was determined as 3.1 ± 0.1 µM. “Acinetobacter baumannii AdeB multidrug efflux pump (natural protein)”: the stoichiometry N (usually the number of molecules, sites or subunits per partner or assembly) in assay [3] stood at 3. As to CusA (from UniProt P38054), the Kd with CusB (Escherichia coli) is 5.1 µM.
